The source of these data is patent US10563197B2, “Use of a combination of Dbait molecule and PARP inhibitors to treat cancer” (INSTITUT CURIE, priority 2015, dated 2020).

What all share (assay type): cell-based, human
One test relates to MDAMB231. Briefly: Cell survival, trypan blue counting. Conditions: for efficacy of the combination of PARPi with AsiDNA versus calculated additivity: 4.8 μM or 16 μM AsiDNA, PARPi doses giving 80% and 50% survival, 6 days; for IC20 / IC50: Homo sapiens, MDA-MB-231, MDAMB231; for IC20: PARPi dose giving 80% survival; for IC50: PARPi dose resulting in 50% survival. Here is the method:
Cells were grown according to the supplier's instructions.

The next test relates to 2 non-tumor cell lines. The experiment in a line: Combined treatment survival in non-tumor cell lines (FIG. 6, 12). Conditions: AsiDNA 4.8 μM with veliparib 10 and 50 μM; 6 days. Here is the method:
(§1) Efficacy of AsiDNA (4. 8 μM), olaparib (0, 0.1 and 1 μM) or both was monitored 6 days after treatment by cell counting after trypan blue labeling. (A) Percentage of living cells relative to non-treated condition (NT). (B) Percentage of dead cells. Data are expressed as mean+Sc.D. of at least 2 independent experiments. Dotted lines indicate the calculated cell survivals if additivity between AsiDNA and olaparib.
(A) Percentage of living cells relative to non-treated condition (NT). (B) Percentage of dead cells. Dotted lines indicate the calculated cell survivals if additivity between AsiDNA and veliparib.
The inventors monitored cell survival to combined treatment of 3 BC and 2 non-tumor cell lines with different sensitivities to Ola and AsiDNA alone (FIG. 6; Table 1).

Test [1] concerns Breast cancer cell lines MDAMB231. The experiment in a line: Cell survival with DT01 and PARP inhibitors (Example 1, FIG. 1). Conditions: DT01 100 or 333 μg/ml plus Olaparib 0.1, 1 μM or Veliparib 1, 10, 50 μM; 6 days. How it is done:
Breast cancer cell lines MDAMB231 were treated with 100 μg/ml (Black, Squares) or 333 μg/ml (Grey, Crosses) of DT01 or no DT01 (Black, Diamond) and exposed to either 0, 0.1 and 1 μM of Olaparib (upper panel) or 1, 10 and 50 μM Veliparib (lower panel). Survival was measured 6 days after treatment using trypan blue to detect living cells. The data are presented as % of the non-treated control.
The human cell lines were grown in complete RPMI (Gibco, Cergy Pontoise, France) supplemented with 10% fetal bovine serum (ATGC, Orléans, France), 1% sodium pyruvate, streptomycin ([…]) and penicillin ([…]) (Invitrogen, Carlsbad, Calif., USA). Cells were maintained at 37° C. under a 5% CO2 atmosphere, at 100% humidity. Treatments were performed by adding nucleotides (DT01 and others) or/and PARP inhibitors at time zero in medium without serum. The medium was changed with fresh medium containing fetal bovine serum 24 hours after beginning of treatment. Cells were let to grow for 4 additional days (5 days after treatment), treated with trypsin and counted for total number of cells. Trypan blue (0.4%) was added for counting the living cells (uncolored) in the population.

The test system of the next test is 3 BC cell lines. Briefly: Combined treatment survival in BC cell lines (FIG. 6, 7, 12). Conditions: AsiDNA 4.8 μM with veliparib 10 and 50 μM; 6 days. How it is done:
as §1
Efficacy of AsiDNA (4.8 μM), veliparib (0, 10 and 50 μM) or both was monitored 6 days after treatment by trypan blue staining. (A) Percentage of living cells relative to non-treated condition (NT). (B) Percentage of dead cells. Dotted lines indicate the calculated cell survivals if additivity between AsiDNA and veliparib.
The inventors monitored cell survival to combined treatment of 3 BC and 2 non-tumor cell lines with different sensitivities to Ola and AsiDNA alone (FIG. 6; Table 1). […] However, the combination remained more efficient or at least equal to the expected additive effect at all the tested doses. […] In contrast, the normal cells were insensitive to both, the combined and the single treatments with AsiDNA and Ola (FIG. 6; Table 1).

By IC20 is commonly meant the concentration at which the effect reaches the 20% level. The low end stands for an effect from little substance, the high end for a need for much substance. In general, IC50 refers to the concentration at which inhibition is half-maximal. A lower IC50 goes with greater potency in that assay.

The structures appear in SMILES notation.

Turning to `NC(=O)c1ccc(I)c([N+](=O)[O-])c1` [Iniparib], in the test with MDAMB231, the “efficacy of the combination of PARPi with AsiDNA versus calculated additivity” value is on record as “supra-additive efficacy”, the IC20 worked out at 46000 nM and the IC50 came out at 49500 nM.

Turning to `C[C@]1(c2nc3c(C(N)=O)cccc3[nH]2)CCCN1` [Veliparib, 2-((fi)-2-methylpyrrolidin-2-yl)-1W-benzimidazole-4-carboxamide], the “synergistic effect of the combined treatment with AsiDNA” value in the test with 2 non-tumor cell lines is listed as “absent”. In addition, the “survival to combined treatment with DT01 versus expected added effect of both single treatments” value in test [1] is “synergic effect”. For the same molecule, the “effect of the combined treatment with AsiDNA” value in the test with 3 BC cell lines is recorded as “synergistic effect”.

For `CNCc1ccc(-c2[nH]c3cc(F)cc4c3c2CCNC4=O)cc1` [Rucaparib, 8-Fluoro-2-{4-[(methylamino)methyl]phenyl}-1,3,4,5-tetrahydro-6H-azepino[5,4,3-cd]indol-6-one], in the test on MDAMB231, the “efficacy of the combination of PARPi with AsiDNA versus calculated additivity” value was “supra-additive efficacy”, the IC20 worked out at 400 nM and the IC50 was found to be 1800 nM.

As for `COC1CCN(C(=O)c2cc(Cc3n[nH]c(=O)c4ccccc34)ccc2F)CC1` [AZD2461], in the test with MDAMB231, the “efficacy of the combination of PARPi with AsiDNA versus calculated additivity” value is recorded as “supra-additive efficacy”, the 20% effect level (IC20) was put at 100 nM and 500 nM corresponded to half-maximal inhibition (IC50).

For `NC(=O)c1cccc2cn(-c3ccc([C@@H]4CCCNC4)cc3)nc12` [Niraparib], in the test on MDAMB231, the “efficacy of the combination of PARPi with AsiDNA versus calculated additivity” value is “supra-additive efficacy”, the 20% effect level (IC20) was put at 100 nM and the IC50 was determined as 700 nM.

With `Cn1ncnc1[C@H]1c2n[nH]c(=O)c3cc(F)cc(c23)N[C@@H]1c1ccc(F)cc1` [BMN673, (8S,9R)-5-fluoro-8-(4-fluorophenyl)-9-(1-methyl-1H-1,2,4-triazol-5-yl)-8,9-dihydro-2H-pyrido[4,3,2de]phthalazin-3(7H)-one], in the test on MDAMB231, the “efficacy of the combination of PARPi with AsiDNA versus calculated additivity” value is listed as “supra-additive efficacy”, the IC20 was found to be 0.13 nM and inhibition was half-maximal at 15.4 nM (IC50).
